How the values were obtained:
diarrhea = assay: Diarrhea incidence in calves fed 2′FL-supplemented calf milk replacer versus placebo (standard CMR); type: in vivo, Holstein Friesian calves (bovine); settings: for Diarrhea cases: group B, 0.005% drywt. 2′FL in CMR
Description: (§1) Holstein Friesian calves (2-3 week-old, 95% male) were transported from different farms to the experimental facility of Denkavit (Voorthuizen, The Netherlands) where the animals were reared. The experiment was performed in two trial rounds.
(§2) The calves were randomly and gender-equally divided in two groups based on experimental calf milk replacer: group A (placebo-standard calf milk replacer (CMR) powder of the farm) and group B (standard CMR powder supplemented with 0.005% drywt. 2′-fucosyllactose (2′FL, see Example 1). The calf milk replacer was administered as a liquid to the calves (water was added to the CMR powder to obtain 150 gram CMR powder per liter liquid CMR). Each group involved […], assigned into 12 rows. Each row contained 4 pens, where six calves were living in one pen.
(§3) 2′-fucosyllactose was supplied to calves via CMR (major components are presented in Table 1) during the whole trial, lasting 6 months. The Start CMR was given from arrival till week 6, which then switched to the Gold Alfa CMR up to day 136. The remaining time calves were fed with the Omega CMR. Solid feed (concentrates) was introduced gradually from arrival, starting with the Avance Alfa up till day 126, then replaced by the Avance Omega till the end of the experiment. Feed was provided ad libitum to calves twice a day (morning and evening) and were recorded daily based on rows (concentrates, straw, corn silage) or groups (CMR) consumption.
The calves were randomly and gender-equally divided in two groups based on experimental calf milk replacer (CMR): group A (placebo-standard CMR powder of the farm), group B (standard CMR powder supplemented with 0.005% drywt. 2′FL). […]
Starting from the day of arrival, calves received standard calf milk replacer (CMR) during a period of 9 weeks. […] Feed were provided ad libitum to calves twice a day (morning and evening) and were recorded daily based on rows (concentrates, straw, corn silage) or groups (CMR) consumption.
Calves were followed up by the farm staffs since arrival till the end of the trial. Fecal consistency in scale 1-4 (Larson et al., 1977, J. Dairy Science, 60 (6): p. 989-991) was recorded daily for the first ten days since arrival. […] Disease incidences and medicinal usage based on individual treatments were recorded to compare between treatment groups. Live weight of the animals was monitored at arrival (d1), two weeks (W2), six weeks (W6), ten weeks (W10) and 12 weeks (W12) and 17 weeks (W17) since arrival. […]
(§4) Odds ratios and risk ratios of the pneumonia and diarrhea incidence were evaluated with the epitools R package using the Wald test (cran.r-project.org/web/packages/epitools/epitools.pdf). […]

[1] = Mortality and adverse effects in calves (health and safety observation); type: in vivo, Holstein Friesian calves (bovine)
Description: as §1, §2, §3
(§5) The calves were randomly and gender-equally divided in two groups based on experimental calf milk replacer (CMR): group A (placebo-standard CMR powder of the farm), group B (standard CMR powder supplemented with 0.005% drywt. 2′FL). The calf milk replacer was administered as a liquid to the calves (water was added to the CMR powder to obtain 150 gram CMR powder per liter liquid CMR). Each group involved 100 calves, assigned into four rows (25 calves per row) of two compartment blocks. Each row contained five pens, where four to six calves were living in one pen.
(§6) Starting from the day of arrival, calves received standard calf milk replacer (CMR) during a period of 9 weeks. Group A only received the CMR, while the CMR supplied to groups B was supplemented with 0.005% drywt. 2′FL. Calf starter (concentrates) and straw were introduced gradually from day 6 till the end of the experiment (12 weeks) while calves had access to corn silage at weeks 11 and 12. Feed were provided ad libitum to calves twice a day (morning and evening) and were recorded daily based on rows (concentrates, straw, corn silage) or groups (CMR) consumption.
Calves were followed up by the farm staffs since arrival till the end of the trial. Fecal consistency in scale 1-4 (Larson et al., 1977, J. Dairy Science, 60 (6): p. 989-991) was recorded daily for the first ten days since arrival. Number of mortalities and signs of adverse effects were registered daily. […] Disease incidences and medicinal usage based on individual treatments were recorded to compare between treatment groups. Live weight of the animals was monitored at arrival (d1), two weeks (W2), six weeks (W6), ten weeks (W10) and 12 weeks (W12) and 17 weeks (W17) since arrival. […]
as §4

jejunum = assay: Jejunal RNAseq (transcriptomics), Gene Ontology enrichment analysis of differentially expressed genes, 2′FL versus placebo; type: in vivo, Bos taurus (calves); settings: day 71 (W11)
Description: One healthy and middle weight calf of one pen per group was picked for euthanization in the slaughterhouse at day 71 (W11) (8 calves in total, 4 per group). A 20 cm segment of jejunum without Peyer's patch was excised and washed three times with physiological serum using a 30 ml syringe. A small segment (2-3 mm) was further excised and stored in 2 ml RNA protect tissue reagent (Qiagen) containing RNA preservation buffer for transportation at room temperature before long-term storage at −80° C.
Jejunal specimens stored in RNA protect tissue reagent were excised further to transfer 50 mg tissue into 2 ml tubes. The tissues were disrupted and homogenized using one stainless steel bead 5 mm in 900 μl QIAzol lysis reagent (QIAgen) in combination with a FASTPREP® 24 device. The homogenates were further manipulated according to the guidance of the manufacturer of the RNeasy plus universal tissue mini kit (QIAgen). The total purified RNA were eluted in 40 μl and quickly checked for the concentration and quality using Nanodrop (Implen NANOPHOTOMETER®) before storage at −80° C.
Total RNA was submitted to Azenta (Genewiz, Germany) to perform RNA sequencing. The total RNA was checked again for quality and concentration using Qubit and fragment analyzer before the mRNA were selected for polyA library preparation and sequenced using the ILLUMINA® Novaseq™ 2×150 bp technology platform guaranteed 20 million paired-end reads per samples (40 million reads).
RNA sequencing reads were quality-checked with fastqc (bioinformatics.babraham.ac.uk/projects/fastqc/) and trimmed with Trimmomatic (Bolger et al., 2014, Bioinformatics 30 (15): p. 2114-2120). Reads were aligned to the cow reference (Bos_taurus_UMD_3.1.1) using the genome alignment method in STAR (Dobin et al., 2013, Bioinformatics 29 (1): p. 15-21); Gene expression was quantified by featureCounts (Liao et al., 2014, Bioinformatics 30 (7): p. 923-930) and differential expression analysis was performed using DEseq2 (Love et al., 2014, Genome Biol. 15 (2): 550). Enrichment analysis of differential expressed was done in clusterProfiler (Wu et al., 2021, Innovation 2 (3): 100141) based on Gene Ontology.

acute pneumonia = assay: Acute pneumonia incidence in calves fed 2′FL-supplemented calf milk replacer versus placebo (standard CMR); type: in vivo, Holstein Friesian calves (bovine)
Description: as §1, §2, §3, §5, §6
Calves were followed up by the farm staffs since arrival till the end of the trial. Fecal consistency in scale 1-4 (Larson et al., 1977, J. Dairy Science, 60 (6): p. 989-991) was recorded daily for the first ten days since arrival. Number of mortalities and signs of adverse effects were registered daily. The animals were treated prophylactically or metaphylactically (herd treatment) with 1 g oxytetracycline 100% (at day 4), 0.5 g Doxylin 50% WSP and 0.8 g bromhexine 2% (at day 13), and 3.1 ml Tilmicosol 250 mg/ml (at day 24) to prevent and/or treat acute lung inflammation. Individual treatments were followed by remark of the farm staffs and diagnostic of farm veterinary practitioners. Disease incidences and medicinal usage based on individual treatments were recorded to compare between treatment groups. Live weight of the animals was monitored at arrival (d1), two weeks (W2), six weeks (W6), ten weeks (W10) and 12 weeks (W12) and 17 weeks (W17) since arrival. Feed conversion ratio (FCR) of each period was computed based on the input of daily weight gain and daily feed intake. […]

Substance: 2′-fucosyllactose [2′FL]
- Relative risk of getting diarrhea, group B versus placebo (diarrhea; round 1 (veal calf)): 0.71
- Diarrhea cases (diarrhea; round 1 (veal calf), out of 290 calves, placebo 51 cases): 36 cases
- Odds ratio associated with diarrhea (diarrhea; round 1 (veal calf), standard CMR (placebo) versus 2′FL supplemented CMR): 1.51
- Diarrhea cases (diarrhea; round 2 (rearing calf), 100 calves per group, placebo 1 case): 0 cases
- Adverse effects ([1]; registered by the farm staffs, target animals (calves), both rounds): no adverse effects
- Mortality ([1]; round 1, 6 months, group B (2′FL), placebo 4.14%, 262800 min): 3.1%
- Calves dead ([1]; round 1, 6 months, group B (2′FL), placebo 12 (4.14%)): 9 calves
- Mortality, difference between groups ([1]; round 1, 6 months, Kaplan-Meier test): no significant difference in mortality between the experimental groups
- Mortality, difference between groups ([1]; round 2, 12 weeks, 7/400 calves died in all groups): no significant difference in mortality between the different groups
- Immune responses versus placebo (enrichment analysis) (jejunum; 4 calves per group): enhanced immune responses in several ways (T cell activation, cell differentiation, cell-cell adhesion, adaptive immune response)
- p. adjust, up-regulated gene ontology process ADAPTIVE_IMMUNE_RESPONSE (jejunum; group B versus placebo): 4.15E−06
- p. adjust, up-regulated gene ontology process ADAPTIVE_IMMUNE_RESPONSE_BASED_ON_SOMATIC_RECOMBINATION_OF_IMMUNE_RECEPTORS_BUILT_FROM_IMMUNOGLOBULIN_SUPERFAMILY_DOMAINS (jejunum; group B versus placebo): 0.00573
- p. adjust, up-regulated gene ontology process EXTERNAL_SIDE_OF_PLASMA_MEMBRANE (jejunum; group B versus placebo): 0.000673
- p. adjust, up-regulated gene ontology process HETEROTYPIC_CELL_CELL_ADHESION (jejunum; group B versus placebo): 0.003478
- p. adjust, up-regulated gene ontology process LEUKOCYTE_DIFFERENTIATION (jejunum; group B versus placebo): 0.003462
- p. adjust, up-regulated gene ontology process LYMPHOCYTE_MEDIATED_IMMUNITY (jejunum; group B versus placebo): 0.003478
- p. adjust, up-regulated gene ontology process MONONUCLEAR_CELL_DIFFERENTIATION (jejunum; group B versus placebo): 0.000274
- p. adjust, up-regulated gene ontology process NEGATIVE_REGULATION_OF_ADAPTIVE_IMMUNE_RESPONSE (jejunum; group B versus placebo): 0.002368
- p. adjust, up-regulated gene ontology process NEGATIVE_REGULATION_OF_IMMUNE_SYSTEM_PROCESS (jejunum; group B versus placebo): 0.001169
- p. adjust, up-regulated gene ontology process NEGATIVE_REGULATION_OF_LEUKOCYTE_MEDIATED_IMMUNITY (jejunum; group B versus placebo): 0.002368
- p. adjust, up-regulated gene ontology process NEGATIVE_REGULATION_OF_LYMPHOCYTE_MEDIATED_IMMUNITY (jejunum; group B versus placebo): 0.00552
- p. adjust, up-regulated gene ontology process POSITIVE_THYMIC_T_CELL_SELECTION (jejunum; group B versus placebo): 0.00573
- p. adjust, up-regulated gene ontology process POSITIVE_T_CELL_SELECTION (jejunum; group B versus placebo): 0.003206
- p. adjust, up-regulated gene ontology process REGULATION_OF_ADAPTIVE_IMMUNE_RESPONSE (jejunum; group B versus placebo): 0.003206
- p. adjust, up-regulated gene ontology process REGULATION_OF_LEUKOCYTE_MEDIATED_IMMUNITY (jejunum; group B versus placebo): 0.003478
- p. adjust, up-regulated gene ontology process REGULATION_OF_T_CELL_ACTIVATION (jejunum; group B versus placebo): 0.003668
- p. adjust, up-regulated gene ontology process T_CELL_ACTIVATION (jejunum; group B versus placebo): 9.06E−06
- p. adjust, up-regulated gene ontology process T_CELL_DIFFERENTIATION (jejunum; group B versus placebo): 0.000662
- p. adjust, up-regulated gene ontology process T_CELL_PROLIFERATION (jejunum; group B versus placebo): 0.002368
- p. adjust, up-regulated gene ontology process T_CELL_RECEPTOR_COMPLEX (jejunum; group B versus placebo): 0.000274
- Relative risk of getting acute pneumonia, group B versus placebo (acute pneumonia; round 1 (veal calf), 0.005% drywt. 2′FL in CMR): 0.86
- Acute pneumonia cases (acute pneumonia; round 1 (veal calf), group B, 0.005% drywt. 2′FL in CMR, 6 months, out of 290 calves, placebo 111 cases): 96 cases
- Relative risk of getting acute pneumonia, group B versus placebo (acute pneumonia; round 2 (rearing calf), 0.005% drywt. 2′FL in CMR): 0.63
- Acute pneumonia cases (acute pneumonia; round 2 (rearing calf), group B, 0.005% drywt. 2′FL in CMR for 9 weeks, 12-week trial, 100 calves per group, placebo 27 cases): 17 cases
- Acute pneumonia cases, share of calves (acute pneumonia; round 2 (rearing calf), group B, placebo 27%): 17%
- Common odds ratio of acute pneumonia (acute pneumonia; rounds 1 and 2 integrated, standard CMR (placebo) versus 2′FL supplemented CMR, Mantel-Haenszel): 1.35
